Patent publication US11065231B2, “Compounds and methods for the targeted degradation of interleukin-1 receptor- associated kinase 4 polypeptides” (Arvinas Operations, Inc., priority 2017, dated 2021)

Experiments:
IRAK4 [1] = target: T1, IRAK4 (Homo sapiens (Human), UniProt Q9NWZ3); assay: Western blots of IRAK4 protein degradation; format: cell-based; settings: from western blots
IRAK1 [2] = target: T2, IRAK1 (Homo sapiens (Human), UniProt P51617); assay: Western blots of IRAK1 protein degradation; format: cell-based
IRAK4 [3] = target: T1, IRAK4; assay: Western blot assay for assessing degradation of IRAK4 in MCF7 cells; format: cell-based
How it was run: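 MCF7 cells were treated 24 h with serially diluted compound (0.1% DMSO final), then lysed in RIPA. IRAK4 and IRAK1 levels were measured by western blot with β-actin probed alongside. Percent degradation compared compound-treated with DMSO-treated lysates.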

IRAK4 [4] = target: T1, IRAK4; assay: ELISA assay for IRAK4 degradation in MCF7 cells; format: cell-based; settings: Table 1, 24 hours
Description: Enzyme-Linked Immunosorbent Assay (ELISA) Assay for IRAK4 Degradation.
MCF7 cells, purchased from ATCC (Manassas, Va.), were used at a passage range of 2-19. Cells were prepared and treated with compounds for 24 hours, exactly as described above for the Western blots. The ELISA assay was performed using the kit and instructions described by Abcam (cat. #: ab213472, Abcam Biotechnology, Cambridge, Mass.). Table 1 below provides and compares the ELISA IRAK4 degradation data to the western blot IRAK 4 degradation data for Examples 2, 3, 4, and 5. Furthermore, FIG. 5 is a graph illustrating the ELISA IRAK4 degradation data.

IRAK1 [5] = target: T2, IRAK1; assay: Western blot assay for degradation of IRAK1 in MCF7 cells; format: cell-based
IRAK4 [6] = target: T1, IRAK4; assay: Biochemical Z'-Lyte FRET assay for IRAK4 kinase inhibition; settings: 2 nM enzyme, 1 mM ATP, 2 μM substrate
How it was run: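 Z′-Lyte FRET phosphorylation of Ser/Thr 7 peptide (2 µM) by 2 nM recombinant IRAK4 at 1 mM ATP in HEPES pH 7.5 with MgCl2/MnCl2, after 10 min enzyme–compound preincubation; 1 h at room temperature, then 1 h development, 460/530 nm emission. Duplicate 12-point, 3-fold curves from 30 µM; IC50 from percent inhibition against ±100% controls.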

[7] = Table 5, IRAK4 degradation, 24 hour incubation, read-out: IRAK4 Dmax (%)
[8] = western blot, 24 hour incubation, read-out: Dmax (IRAK4 degradation)
[9] = Table 1, 24 hours, read-out: IRAK4 by western DC50
[10] = Table 5, IRAK4 degradation, 24 hour incubation, read-out: IRAK4 DC50

T2 sequence (P51617 whole entry): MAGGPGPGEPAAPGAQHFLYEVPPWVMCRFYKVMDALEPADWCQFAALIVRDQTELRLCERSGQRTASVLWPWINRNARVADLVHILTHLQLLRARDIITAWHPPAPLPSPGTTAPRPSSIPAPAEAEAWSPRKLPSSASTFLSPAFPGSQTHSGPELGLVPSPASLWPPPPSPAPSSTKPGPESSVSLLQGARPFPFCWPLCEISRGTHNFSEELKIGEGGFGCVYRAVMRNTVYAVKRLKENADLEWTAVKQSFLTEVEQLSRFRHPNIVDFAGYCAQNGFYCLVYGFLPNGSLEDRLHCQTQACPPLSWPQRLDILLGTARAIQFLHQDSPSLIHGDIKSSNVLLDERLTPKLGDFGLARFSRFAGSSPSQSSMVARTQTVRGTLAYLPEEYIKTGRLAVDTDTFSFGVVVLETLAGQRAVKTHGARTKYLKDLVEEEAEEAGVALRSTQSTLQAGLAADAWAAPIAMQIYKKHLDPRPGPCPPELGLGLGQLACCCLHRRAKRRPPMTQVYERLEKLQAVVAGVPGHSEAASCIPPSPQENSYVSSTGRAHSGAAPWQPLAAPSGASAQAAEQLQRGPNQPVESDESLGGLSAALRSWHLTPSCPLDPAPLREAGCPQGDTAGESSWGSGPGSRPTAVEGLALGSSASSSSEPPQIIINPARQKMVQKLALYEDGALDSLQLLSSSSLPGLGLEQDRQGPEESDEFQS
T1 sequence (Q9NWZ3 whole entry): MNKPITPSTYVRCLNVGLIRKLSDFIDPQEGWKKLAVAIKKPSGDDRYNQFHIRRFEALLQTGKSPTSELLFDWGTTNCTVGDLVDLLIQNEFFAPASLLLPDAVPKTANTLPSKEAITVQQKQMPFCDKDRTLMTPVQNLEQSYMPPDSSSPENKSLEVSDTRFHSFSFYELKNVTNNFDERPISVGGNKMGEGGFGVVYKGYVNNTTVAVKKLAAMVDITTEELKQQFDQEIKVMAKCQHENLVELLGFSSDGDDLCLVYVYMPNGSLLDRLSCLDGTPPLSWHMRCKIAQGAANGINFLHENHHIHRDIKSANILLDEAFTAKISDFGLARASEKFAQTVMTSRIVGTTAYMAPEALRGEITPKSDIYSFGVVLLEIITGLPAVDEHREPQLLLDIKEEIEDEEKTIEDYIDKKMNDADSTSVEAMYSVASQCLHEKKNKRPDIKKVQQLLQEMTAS

DC50 (IRAK4 [1]) | Dmax (IRAK4 [1]) | degradation of IRAK1 (IRAK1 [2]) | IRAK4 by western % degraded (IRAK4 [3]; Table 1, 24 hours) | Dmax (IRAK4 [3]; [7]) | Dmax (IRAK4 [3]; [8]) | IRAK4 by ELISA % degraded (IRAK4 [4]) | IRAK1 protein degradation (IRAK1 [5]) | IC50 (IRAK4 [6]) | DC50 (IRAK4 [3]; [9]) | DC50 (IRAK4 [3]; [10]) | DC50 (IRAK4 [3]; western blot, 24 hour incubation, read-out: DC50 (IRAK4 degradation)) | Compound
9.7 nM | 71% | no significant degradation was observed |  |  |  |  |  |  |  |  |  | O=C1CCC(N2C(=O)c3ccc(OCCOCCN4CCN(Cc5ccc6c(c5)nc(NC(=O)c5cccc(C(F)(F)F)c5)n6C5CCC(CO)CC5)CC4)cc3C2=O)C(=O)N1 (centres unmarked) [Exemplary Compound 2, N-(5-((4-(2-(2-((2-(2,6-dioxopiperidin-3-yl)-1,3-dioxoisoindolin-5-yl)oxy)ethoxy)ethyl)piperazin-1-yl)methyl)-1-((1s,4s)-4-(hydroxymethyl)cyclohexyl)-1H-benzo[d]imidazol-2-yl)-3-(trifluoromethyl)benzamide]
 |  |  | 71% | 50 to 70% | 71% | 76% | no significant degradation was observed |  |  |  |  | O=C1CCC(N2C(=O)c3ccc(OCCOCCN4CCN(Cc5ccc6c(c5)nc(NC(=O)c5cccc(C(F)(F)F)c5)n6C5CCC(CO)CC5)CC4)cc3C2=O)C(=O)N1 (centres unmarked) [compound 2, N-(5-((4-(2-(2-((2-(2,6-dioxopiperidin-3-yl)-1,3-dioxoisoindolin-5-yl)oxy)ethoxy)ethyl)piperazin-1-yl)methyl)-1-((1s,4s)-4-(hydroxymethyl)cyclohexyl)-1H-benzo[d]imidazol-2-yl)-3-(trifluoromethyl)benzamide]
 |  |  | 80% | > 70% | 80% | 86% | no significant degradation was observed | < 30 nM | 23 nM | < 30 nM | 23 nM | O=C1CCC(N2C(=O)c3ccc(OCCOCCOCCN4CCN(Cc5ccc6c(c5)nc(NC(=O)c5cccc(C(F)(F)F)c5)n6[C@H]5CC[C@@H](CO)CC5)CC4)cc3C2=O)C(=O)N1 (some centres unmarked) [compound 3, N-(5-((4-(2-(2-(2-((2-(2,6-dioxopiperidin-3-yl)-1,3-dioxoisoindolin-5-yl)oxy)ethoxy)ethoxy)ethyl)piperazin-1-yl)methyl)-1-((1s,4s)-4-(hydroxymethyl)cyclohexyl)-1H-benzo[d]imidazol-2-yl)-3-(trifluoromethyl)benzamide]
 |  |  | 76% | 50 to 70% |  | 80% |  | < 30 nM | 40 nM | 30 to 100 nM |  | O=C1CCC(N2C(=O)c3ccc(OCCOCCOCCOCCOCCN4CCN(Cc5ccc6c(c5)nc(NC(=O)c5cccc(C(F)(F)F)c5)n6[C@H]5CC[C@@H](CO)CC5)CC4)cc3C2=O)C(=O)N1 (some centres unmarked) [compound 5, N-(5-((4-(14-((2-(2,6-dioxopiperidin-3-yl)-1,3-dioxoisoindolin-5-yl)oxy)-3,6,9,12-tetraoxatetradecyl)piperazin-1-yl)methyl)-1-((1s,4s)-4-(hydroxymethyl)cyclohexyl)-1H-benzo[d]imidazol-2-yl)-3-(trifluoromethyl)benzamide]
